Laboratory results: ChEMBL document CHEMBL1146881, “Improved replicon cellular activity of non-nucleoside allosteric inhibitors of HCV NS5B polymerase: from benzimidazole to indole scaffolds” (Bioorg Med Chem Lett, 2006)
Active and inactive are the calls of the source. The calls are words filed in the database; no cut-off is given here.

How the values were obtained:
Hepatitis C virus = assay: Inhibition of HCV RNA replication by replicon assay; format: functional, organism-based; details: for Activity: Hepacivirus hominis
[1] = biological target: RNA-directed RNA polymerase (Hepacivirus hominis, UniProt O39930); assay: Inhibition of HCV 1b NS5B delta21 RNA dependent RNA polymerase by SPA; parameters: species or system Hepatitis C virus subtype 1b
Sequence of RNA-directed RNA polymerase (O39930 whole entry): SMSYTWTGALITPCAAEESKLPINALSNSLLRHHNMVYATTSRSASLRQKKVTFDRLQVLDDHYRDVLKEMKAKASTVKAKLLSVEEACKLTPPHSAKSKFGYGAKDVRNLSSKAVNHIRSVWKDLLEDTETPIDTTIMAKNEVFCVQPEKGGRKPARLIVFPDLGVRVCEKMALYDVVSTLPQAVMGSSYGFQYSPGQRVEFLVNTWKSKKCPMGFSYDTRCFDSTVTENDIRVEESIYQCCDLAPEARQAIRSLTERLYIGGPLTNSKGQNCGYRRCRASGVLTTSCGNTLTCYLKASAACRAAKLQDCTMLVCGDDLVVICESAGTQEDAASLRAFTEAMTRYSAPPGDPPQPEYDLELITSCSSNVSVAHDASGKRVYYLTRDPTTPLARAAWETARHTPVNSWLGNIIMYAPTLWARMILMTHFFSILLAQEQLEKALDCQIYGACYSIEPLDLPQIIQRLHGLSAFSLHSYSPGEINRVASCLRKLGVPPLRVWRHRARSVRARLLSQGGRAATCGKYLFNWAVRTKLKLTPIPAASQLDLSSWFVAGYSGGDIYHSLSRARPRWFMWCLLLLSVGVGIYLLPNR

Genome polyprotein = Genome polyprotein (Human poliovirus 1 Mahoney, UniProt P03300); assay: Inhibition of poliovirus RNA dependent RNA polymerase; parameters: species or system Enterovirus C
Sequence of Genome polyprotein (P03300 1749-2209 limits assumed): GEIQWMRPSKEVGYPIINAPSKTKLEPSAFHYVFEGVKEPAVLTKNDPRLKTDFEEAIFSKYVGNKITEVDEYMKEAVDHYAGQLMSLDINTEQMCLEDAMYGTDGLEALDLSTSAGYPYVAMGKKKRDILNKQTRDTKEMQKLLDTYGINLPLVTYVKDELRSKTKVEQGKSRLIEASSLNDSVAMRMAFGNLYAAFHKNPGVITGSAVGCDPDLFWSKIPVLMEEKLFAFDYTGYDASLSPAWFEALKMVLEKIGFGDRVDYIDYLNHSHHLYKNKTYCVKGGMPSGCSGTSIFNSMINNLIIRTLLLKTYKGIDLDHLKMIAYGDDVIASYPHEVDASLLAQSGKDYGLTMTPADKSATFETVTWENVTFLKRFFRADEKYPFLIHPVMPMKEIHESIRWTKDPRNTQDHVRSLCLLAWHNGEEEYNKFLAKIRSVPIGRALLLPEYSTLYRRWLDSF

| SMILES | Activity (Hepatitis C virus) | IC50 [1] [nM] | EC50 (Hepatitis C virus) [nM] | IC50 (Genome polyprotein) [nM] |
| --- | --- | --- | --- | --- |
| O=C(O)c1ccc2c(c1)nc(-c1ccoc1)n2C1CCCCC1 | inactive | 1100 | – | – |
| O=C(O)c1ccc2c(c1)nc(-c1ccoc1)n2C1CCCC1 | inactive | 2200 | – | – |
| O=C(O)c1ccc2c(C3CCCCC3)c(-c3ccccn3)[nH]c2c1 | – | 230 | > 10000 | – |
| COC(=O)c1c(C(=O)O)ccc2c(C3CCCC3)c(-c3ccoc3)n(C)c12 | – | 480 | 22000 | – |
| Cn1c(-c2ccoc2)c(C2CCCCC2)c2ccc(C(=O)O)nc21 | – | 51 | – | – |
| O=C(O)c1ccc2c(C3CCCCC3)c(-c3ccccc3)[nH]c2c1 | – | 50 | > 10000 | – |
| O=C(O)/C=C/c1cc(C2CCCCC2)c(-c2ccccn2)[nH]1 | – | > 50000 | – | – |
| Cn1c(-c2ccoc2)c(C2CCCC2)c2ccc(C(=O)O)c(Cl)c21 | – | 290 | 37000 | – |
| Cn1c(-c2ccccn2)c(C2CCCCC2)c2ccc(C(=O)O)cc21 | – | 90 | 3900 | – |
| Cc1c(-c2ccoc2)n(C2CCCCC2)c2ccc(C(=O)O)cc12 | – | 44 | > 10000 | – |
| Cn1c(-c2ccoc2)c(C2CCCC2)c2ccc(C(=O)O)c(O)c21 | – | 75 | 19000 | – |
| O=C(O)c1ccc2c(C3CCCCC3)c(-c3ccoc3)[nH]c2c1 | – | 30 | 6700 | > 125000 |
| Cn1c(-c2ccoc2)c(C2CCCC2)c2ccc(C(=O)O)cc21 | – | 21 | 6600 | – |
| COc1c(C(=O)O)ccc2c(C3CCCC3)c(-c3ccoc3)n(C)c12 | – | 340 | 40000 | – |
| Cn1c(-c2ccoc2)c(C2CCCCC2)c2ccc(C(=O)O)cc21 | – | 16 | 4200 | 125000 |
| O=C(O)/C=C/c1cc(-c2ccccn2)n(C2CCCCC2)n1 | – | > 100000 | – | – |
| Cc1c(-c2ccccc2)n(C2CCCCC2)c2ccc(C(=O)O)cc12 | – | 180 | > 10000 | – |
| Cn1c(-c2ccccc2)c(C2CCCCC2)c2ccc(C(=O)O)cc21 | – | 30 | 6600 | – |
| O=C(O)c1ccc2c(c1)nc(-c1ccccc1)n2C1CCCCC1 | inactive | 3100 | – | – |
| O=C(O)c1ccc2c(C3CCCC3)c(-c3ccoc3)oc2c1 | – | 81 | 21000 | – |
| O=C(O)c1ccc2c(c1)nc(-c1ccccn1)n2C1CCCCC1 | inactive | 2700 | – | – |
| Cn1c(-c2ccccc2)c(C2CCCCC2)c2ccc(C(=O)O)nc21 | – | 80 | 2200 | – |
| O=C(O)c1ccc2c(C3CCCC3)c(-c3ccoc3)sc2c1 | – | 78 | 22000 | – |
| Cc1c(-c2ccccn2)n(C2CCCCC2)c2ccc(C(=O)O)cc12 | – | 820 | > 10000 | – |
| Cn1c(-c2ccoc2)c(C2CCCC2)c2ccc(C(=O)O)c(C(=O)O)c21 | – | 5300 | – | – |
| O=C(O)c1ccc2c(C3CCCC3)c(-c3ccoc3)[nH]c2c1 | – | 25 | 6600 | – |
| O=C(O)c1ccc2c(c1)S(=O)(=O)C(c1ccoc1)=C2C1CCCC1 | – | > 100000 | – | – |
